Results: patent US20080138299A1, “Oral Pharmaceuticals or Oral Hygiene Products Comprising Licorice Flavonoid Extract” (Hawley & Hazel (BVI) Company Limited, priority 2006, published 2008)

Tests used:
[1] = test system: IL-1β; assay: KB cell Luminex liquid-phase chip analysis; format: cell-based, human; conditions: KB cell supernatant, higher = stronger, test concentration not given
Method: (§1) During the experiment, the KB cell inoculated in the cultivating plate is treated with or without (control) Licochalone A. After the treatment, the supernatant of the cultivated liquid is collected and stored in −80 C refrigerator. The PGE2 in the supernatant is detected by Enzyme-linked immunsorbent assay, and Luminex multifunctional liquid-phase chip analysis system is used for the detection of GM-CSF, TNF-α, IL-1β and IL-6 (the result is shown in Table 3).
(§2) The 96-well plate is enclosed for 30 min. The fluorescent microspheres are added into the 96-well plate after dilution. Add the standard sample and the sample to be measured, stay overnight at 4° C. In the next day, the supernatant is discarded, and 50 μl GM-CSF, TNF-α, IL-1β and IL-6 antibodies are added to each hole. After rinsing 4 times, the 96-well plate is placed in a shaking table under ambient temperature to shade from light for 1 h, rinse 4 times, and add PE labeled with streptavidin and shade from light for 15 min at room temperature. Rinse 4 times, the microspheres are suspended in the rinsing buffer, and the 96-well plate is immediately placed on Luminex (Luminex Corporation, Austin, Tx.) to analyze.

[2] = test system: IL-6; assay: KB cell Luminex liquid-phase chip analysis; format: cell-based, human; conditions: KB cell supernatant, higher = stronger, test concentration not given
Method: as §1, §2

[3] = test system: GM-CSF; assay: KB cell Luminex liquid-phase chip analysis; format: cell-based, human; conditions: KB cell supernatant, higher = stronger, test concentration not given
Method: as §1, §2

[4] = test system: TNF-α; assay: KB cell Luminex liquid-phase chip analysis; format: cell-based, human; conditions: KB cell supernatant, higher = stronger, test concentration not given
Method: as §1, §2

[5] = test system: Actinobacillus actinomycetemcomitans (A. a) ATCC 43717; assay: Broth micro-dilution MIC; format: cell-based; conditions: no unit in table; dilution series 250-0.12 mg/L, ceiling 250 ppm; 37 °C, 18-24 h; smaller = stronger
Text: (§3) 3. The Inhibition Experiment of Licochalone A and Total Flavonoid Extracts of Zhangguo Licorice (Glycyrrhiza inflate Betal) on Primary Oral Pathogenic Microorganisms 3.1 The Cultivation of the Bacteria Species: Streptococcus mutans (ATCC 25175), Actinomyces naeslundii (ATCC 12104), Actinobacillus actinomycetemicomtans (ATCC 43717), Porphyromonas gingivalis (ATCC 33277), Listed as Following:
(§4) A single colony is picked from the Trypticase Digested Soybean peptone agar blood plate (TSA5B) ordinarily stored bacteria species to Trypticase Digested Soybean peptone broth (TSB), cultivated in microaerobic environment (only P.g needs anaerobic cultivation) with 95% air, 5% CO2 at 37.0° C.±1.0° C., wherein S.m is cultivated for 18-24 h, and the remaining three are cultivated for 40-48 h. Then sterile TSB is used to adjust the turbidity of the bacteria suspension to 0.5^#McFarland standard, equivalent to 1.0×10^8 CFU/mL.
(§5) After performing a series of 2-fold dilutions to the anti-bacteria pharmaceuticals, rationally inoculate with tested bacteria, and observe after incubated at 37° C. for 18-24 h, wherein the lowest pharmaceutical concentration that inhibits the growth visible to the naked eye of the tested bacteria is the minimum inhibitive concentration (MIC) of the tested pharmaceuticals to the tested bacteria. The operating steps are:
(§6) a. Preparation of the stock solution of antibacterial pharmaceutical: Prepare 1% stock solution of various antibacterial pharmaceuticals dope with 100% pure ethanol as solvent. The prepared stock solution is filtered to eliminate bacteria, and is distributed into small portions to be used. b. Range of measured concentration: the present experiment chooses 250 ppm as the ceiling measured concentration of the anti-bacteria pharmaceutical. c. Measuring method: micro-dilution method.
(§7) First add 100 μL TSB to each hole of the 96-well plate, and add 100 μL sterile anti-bacteria pharmaceutical solution which is diluted 10-folds (1000 mg/l) to each hole of the first column, then blow on each hole of the first column repeatedly for 7-8 times using multi-channel micropipet, transfer 100 μL sample to the second column after sufficiently mixing the pharmaceutical with TSB, and after similarly blowing for 7-8 times, transfer 100 μL sample to the third column, and analogously to the last column, thus the concentration of pharmaceutical is 2-fold gradiently diluted, from 500 mg/L of the first column to 0.24 mg/L of the last column (the 12th column).
(§8) The bacteria to be tested and standard bacteria are prepared as above. Dilute the bacteria solution with TSB to a bacteria content of about 10^6 CFU/mL. Then inoculate 100 μL for each hole. Thus the final diluted concentration of the anti-bacteria pharmaceutical in each line are 250, 125, 62.5 . . . 0.12 mg/L, and the final inoculation quantity is about […] or 5×10^6 bacteria each hole; the 96-well plate is placed on a microshaker and is shook for 1 min to mix the solution in each hole. The microwell plate is covered and is sealed with adhesive paper to reduce the evaporation during the incubation process and is placed in a humid box, cultivated in microaerobic environment with 95% air, 5% CO2 (or in anaerobic environment with 90% N2, 5% H2, 5% CO2) at 37.0° C.±1.0° C. for 18-24 h. The 96-well plate is placed under an enzyme-labeling instrument, and by comparing the growing characteristics of the tested bacteria with the standard bacteria, the lowest anti-bacteria pharmaceutical concentration contained in the hole without bacteria is taken as MIC.

[6] = test system: Streptococcus mutans (S. m) ATCC 25175; assay: Broth micro-dilution MIC; format: cell-based; conditions: no unit in table; dilution series 250-0.12 mg/L, ceiling 250 ppm; 37 °C, 18-24 h; smaller = stronger
Text: as §3, §4, §5, §6, §7, §8

[7] = test system: Porphyromonas gingivalis (P. g) ATCC 33277; assay: Broth micro-dilution MIC; format: cell-based; conditions: no unit in table; dilution series 250-0.12 mg/L, ceiling 250 ppm; anaerobic, 37 °C, 18-24 h; smaller = stronger
Text: as §3, §4, §5, §6, §7, §8

[8] = test system: Actinomyces naeslundii (A. n) ATCC 12104; assay: Broth micro-dilution MIC; format: cell-based; conditions: no unit in table; dilution series 250-0.12 mg/L, ceiling 250 ppm; 37 °C, 18-24 h; smaller = stronger
Text: as §3, §4, §5, §6, §7, §8

SMILES	IL-1β (interleukin) (anti-inflammatory ability) [1]	IL-6 (interleukin) (anti-inflammatory ability) [2]	GM-CSF (anti-inflammatory ability) [3]	TNF-α (Tumor Necrosis Factor) (anti-inflammatory ability) [4]	minimum inhibitive concentration (MIC), A. a [5]	minimum inhibitive concentration (MIC), S. m [6]	minimum inhibitive concentration (MIC), P. g [7]	minimum inhibitive concentration (MIC), A. n [8]
C=CC(C)(C)c1cc(/C=C/C(=O)c2ccc(O)cc2)c(OC)cc1O [Licochalone A, 5-(1,1-Dimethylallyl)-4,4′-dihydroxy-2-methoxychalcone]	19%	50%	8%	95%	>250	7.8	1.9	7.8
Oc1cc(Cl)ccc1Oc1ccc(Cl)cc1Cl [Triclosan]	7%	31%	5%	81%	1.9	3.9	7.8	3.9
